System: P. falciparum 3D7 growth, pLDH absorbance
Test: blood-stage malaria parasite growth potency – strain 3D7, dose response (AID 2305)

SMILES	IC50
c1ccc(CCNCc2ccc(-c3cccc(CNc4ccc5ncccc5c4)c3)cc2)cc1	0.93 µM
COc1cccc(CNC(=O)c2cccc(-c3cccc(CN4CCC(N5CCCC5)CC4)c3)n2)c1	1.03 µM
CN1CCCC(CN2CCN(Cc3cccc(-c4ccc(-c5nc6ccc(F)cc6[nH]5)cc4)c3)CC2)C1 (stereo unspecified)	0.14 µM
Cc1ccccc1C1CCN(C2CCC(NC(=O)/C=C/c3cc(F)cc(F)c3)CC2)CC1 (stereo unspecified)	0.83 µM
O=C(Nc1ccccc1)c1cccc(Nc2nccc(Nc3ccc(Oc4ccccc4)cc3)n2)c1	1.55 µM
Oc1ccc(Cl)cc1CN1CCC(CCOC(c2ccccc2)c2ccc(Cl)cc2)CC1 (stereo unspecified)	0.39 µM
COc1ccc(-c2cnc3ccc(NCc4ccc(S(N)(=O)=O)cc4)nn23)cc1	0.8 µM
O=C(Nc1ccc2c(c1)CCC2)N[C@H]1CCN(Cc2ccc(OCCCN3CCCCC3)cc2)C1	0.86 µM
O=[N+]([O-])c1cc(C=NNc2nc3nonc3nc2Nc2ccc(F)cc2)c(Cl)cc1Cl	0.76 µM
O=C(Nc1ccc2ccccc2n1)c1ccccc1-c1ccccc1	0.44 µM
CN1CCCN(Cc2ccc(-c3ccc(NC(=O)c4cccc(C#N)c4)cc3)cc2)CC1	0.88 µM
CCN(C)c1cc(C(=O)N[C@@H](Cc2ccccc2)[C@H](O)CNC(C)(C)c2cccc(OC)c2)cc(N2CCCC2=O)c1	0.07 µM
COC(=O)c1ccc(CCC(C)NCC(O)c2cccc(C(F)(F)F)c2)cc1 (stereo unspecified)	0.41 µM
Cc1cc(C(=O)CN2C(=O)NC(C)(c3ccc4ccccc4c3)C2=O)c(C)n1Cc1ccco1 (stereo unspecified)	0.66 µM
COc1ccc(NC(=O)Nc2ccc(C)c(-c3ccc(C(=O)Nc4ccncc4)cc3)c2)cc1	0.57 µM
FC(F)(F)c1cc(C(F)(F)F)c2cc(CNCCCNc3nc4ccccc4[nH]3)[nH]c2c1	0.14 µM
COc1cc2ccccc2cc1OCCCN1CCN(CC(c2ccc(F)cc2)N2CCN(C(C)C)CC2)CC1 (stereo unspecified)	0.75 µM
Cc1cc2c(cc1C(F)(F)F)N(C(=O)Nc1ccc(OCCN(C)C)c(C(F)(F)F)c1)CC2	0.91 µM
CCCc1cc(C(=O)N[C@@H](Cc2ccccc2)[C@H](O)CNC(C)(C)c2cccc(OC)c2)c(F)c(N2CCCC2=O)c1	0.1 µM
CCOc1ccc2c(NN=Cc3cccc(Cl)c3)cc(C)nc2c1	0.86 µM
CN(C)CCN(Cc1ccccc1)c1ccc([N+](=O)[O-])cc1C(F)(F)F	0.78 µM
Cc1[nH]c2ccccc2c1C1=CCN(CCCCCC23CCCc4cccc(c42)NC3=O)CC1 (stereo unspecified)	0.25 µM
Cc1cccc2[nH]c(-c3cccc(-c4ccc(NC(=O)Nc5ccc(F)c(F)c5F)cc4)c3)nc12	0.17 µM
CN1CCCN(Cc2ccc(-c3cccc(NC(=O)c4cccc(Cl)c4)c3)cc2)CC1	0.84 µM

SMILES	IC50
CCCCCCCCN1CCCN(C(=O)c2cccc(NC(=O)Nc3ccc4ccccc4c3)c2)CC1	0.76 µM
O=C(Nc1cccc(C2=NCCN2)c1)Nc1cccc(C2=NCCN2)c1	0.42 µM
COc1cc(Cc2cnc(N)nc2N)cc(OC)c1OCCCCC(=O)O	1.14 µM
Cc1ccc(Oc2ccc(CNc3nc(Nc4cccc(F)c4)nc(Nc4cccc(F)c4)n3)cc2)cc1	1.21 µM
CCN(C1CCCCC1)S(=O)(=O)c1ccc(OC)c(N2CCN(C(=O)C(Cl)(Cl)Cl)CC2)c1	0.63 µM
O=c1c(NCCCN(Cc2ccc(F)cc2)c2ccccn2)c(NCc2cccnc2)c1=O	0.06 µM
CCOc1ccc(C(C)NC(=O)c2cc(Cl)ccc2OC)cc1OCC (stereo unspecified)	0.97 µM
Cc1ccc(NC(=O)c2ccc(-c3cc4cc(Cl)c(Cl)cc4[nH]3)cc2)cc1OCCN1CCCC1	0.99 µM
CCOc1cc(C(=O)NCCCN2CCN(c3cccc(Cl)c3)CC2)ccc1-c1nc2cc(Cl)c(F)cc2[nH]1	0.87 µM
COc1ccc(COc2cc(NCCCN)nc3ccccc23)cc1	1.28 µM
O=C(CCOc1ccccc1)NCC1CCCO1 (stereo unspecified)	1 µM
CC(C)CC(NC(=O)c1ccc(F)cc1)C(=O)N[C@H](/C=N/N1CCNC1=O)CC(C)C (stereo partly specified)	1.03 µM
COCCNC(=O)C1CCN(C(c2ccc(Cl)cc2)c2ccc(Cl)cc2)CC1	0.55 µM
CCN(CCCN1CCCCC1)c1cc(C)nc(Nc2ccc(C)c(Cl)c2)n1	0.21 µM
COc1cccc(-c2ccc(C(=O)NC3CCN(Cc4ccc(C(C)(C)C)cc4)CC3)s2)c1	1.6 µM
Cc1ccc(CC(C)NCC(O)c2cccc(Cl)c2)cc1 (stereo unspecified)	0.93 µM
CO/C(=C\C=C\c1cc2cc(Cl)c(Cl)cc2[nH]1)C(=O)NCCCN1CCN(c2ccncc2)CC1	0.73 µM
NC(=O)c1ccccc1Nc1nc(Nc2ccc(N3CCOCC3)cc2)ncc1[N+](=O)[O-]	0.88 µM
Cn1c(=N)cc(-c2ccc(Br)cc2)c2c(=O)[nH]c(N)nc21	1.13 µM
O=C(Nc1cc(Cl)cc(Cl)c1)Nc1ccnc2ccccc12	0.75 µM
NC1=NC(C=Cc2ccccc2)N(OCCCCCCON2C(N)=NC(N)=NC2C=Cc2ccccc2)C(N)=N1 (stereo unspecified)	0.61 µM
Cc1ccc(C(C(=O)Nc2ccc(N3CCNCC3)c(Cl)c2)c2ccccc2)cc1 (stereo unspecified)	0.84 µM
O=C(Nc1ccc(-c2cccc(-c3nc4ccccc4[nH]3)c2)cc1)c1cnn2cccnc12	0.6 µM
CCCCCN1CCCN(Cc2cccc(NC(=O)c3ccc4ccccc4c3)c2)CC1	1.22 µM

SMILES	IC50
CC(C)NCc1ccc(-c2cccc(-c3nc4ccccc4[nH]3)c2)cc1	0.23 µM
Cc1cccc(-c2ccc(CNC3CCN(CC4Cn5c(=O)ccc6ccc(F)c4c65)CC3)cn2)c1 (stereo unspecified)	1.53 µM
COc1ccc2nc3cc(Cl)ccc3c(NCCCCNc3c4ccc(Cl)cc4nc4ccc(OC)cc34)c2c1	0.16 µM
O=C(/C=C/c1ccc(Cl)c(Cl)c1)NC1CCC(CN2CCC(c3nc4ccccc4s3)CC2)CC1 (stereo unspecified)	1.02 µM
COc1ccc2ncc(C#N)c(CCN3CCC(NCc4ccc5c(n4)NC(=O)CS5)CC3)c2n1	0.84 µM
O=C(Nc1cccc(C(F)(F)F)c1)c1ccc(S(=O)(=O)NC2CCN(CC3CCCCC3)CC2)cc1	1.16 µM
NC(CC1CC(=O)N1CC(=O)O)C(=O)O (stereo unspecified)	0.16 µM
CCN1CCN(c2cc(C)c3cc(NC(=O)c4cncc(Br)c4)ccc3n2)CC1	0.66 µM
N#Cc1ccc(CN2CCC(Oc3ccc(NC(=O)c4ccccc4)cc3Cl)CC2)cc1	1.26 µM
Cc1cc(-c2cccc3c(C(=O)N4CCc5cc6nccc(N7CCN8CCC[C@H]8C7)c6cc54)cccc23)cc(C)n1	0.71 µM
CN(C)CC(O)C(O)(c1ccccc1)c1ccc(F)cc1 (stereo unspecified)	1.15 µM
Cc1cccc2[nH]c(-c3ccc(-c4ccc(CNCc5cnn(-c6ccccc6)n5)cc4)s3)nc12	0.72 µM
Nc1c(Cl)cc(C(O)CNCCCCCOCCc2ccccc2)cc1C(F)(F)F (stereo unspecified)	0.98 µM
CS(=O)(=O)CCNCc1cc(-c2cc3ncnc(Nc4ccc(OCc5cccc(F)c5)c(Cl)c4)c3s2)cs1	0.33 µM
NC1CCN(Cc2cccc(-c3ccc(-c4nc5ccc(C(F)(F)F)cc5[nH]4)cc3)c2)C1 (stereo unspecified)	0.7 µM
O=C(Nc1cccc(C(F)(F)F)c1)N1CCOC(CCN2CCC3(CCc4ccccc43)CC2)(c2ccc(Cl)c(Cl)c2)C1 (stereo unspecified)	0.74 µM
Clc1ccc(-c2[nH]c3ccccc3c2CN2CCC(N3CCCCC3)CC2)cc1	1.06 µM
COc1cc2c(cc1C(F)(F)F)N(C(=O)Nc1cc(OC(F)(F)F)cc(-c3cccnc3)c1)CC2	0.04 µM
FC(F)(F)c1cnc(Sc2nnc(-c3ccco3)o2)c(Cl)c1	0.79 µM
Nc1cc(-c2ccc3c(N)nccc3c2)ccc1Cl	1.54 µM
COCCCNC(=O)c1ccc(O)c(-c2cc(Cl)cc(Cl)c2)c1	0.92 µM
NC(N)=NN=CC(=O)Nc1ccc(Cl)c(C(F)(F)F)c1	0.89 µM
CCn1cnc2c(Nc3cccc([N+](=O)[O-])c3)nc(N3CCC(N4CCCCC4)CC3)nc21	0.95 µM
